We go through two substances from US20150056186A1, “COMBINATION THERAPY OF A TYPE II ANTI-CD20 ANTIBODY WITH AN ANTI-BCL-2 ACTIVE AGENT” (Hoffmann-La Roche Inc., priority 2007, published 2015).

The test system of assay [1] is Z138 human B-Cell Non-Hodgkin-lymphoma (NHL) cells. As to the kind of experiment: Tumor growth inhibition study in vivo, Z138 MCL xenografts in SCID beige mice. As to conditions: 10 mg/kg i.v. q7d. The source says:
Z138 human B-Cell Non-Hodgkin-lymphoma (NHL) cells were originally obtained from Glycart (Mantle cell lymphoma-MCL). […] Passage 2 was used for transplantation.
Animal treatment started at day of randomisation, 14 days after s.c. cell transplantation.
Therefore s.c. xenografts models in SCID beige mice are not appropriate for mimicking human ADCC mediated effect with glycoengineered modified antibodies.

Assay [2] has as its target T1, CD20 on Raji cells (ATCC-No. CCL-86) (Homo sapiens, UniProt P11836).
T1 construct: generated by direct immunofluorescence using the Burkitt's lymphoma cell line Raji (ATCC-No. CCL-86); host or cells: Raji cells
T1 sequence (P11836 1-297): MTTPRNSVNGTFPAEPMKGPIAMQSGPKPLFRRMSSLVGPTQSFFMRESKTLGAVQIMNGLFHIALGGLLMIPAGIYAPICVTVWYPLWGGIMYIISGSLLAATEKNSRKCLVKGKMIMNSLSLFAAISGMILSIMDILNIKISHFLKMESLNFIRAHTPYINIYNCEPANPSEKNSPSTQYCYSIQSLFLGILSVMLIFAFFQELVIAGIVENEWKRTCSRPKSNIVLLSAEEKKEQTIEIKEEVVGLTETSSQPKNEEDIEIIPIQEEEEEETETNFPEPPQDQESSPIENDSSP
As to the kind of experiment: Ratio of the binding capacities to CD20 on Raji cells compared to rituximab (direct immunofluorescence, Cy5, FACSArray). Particulars: Cy5-conjugated antibodies, MFI at EC50, corrected for Cy5-labeling ratio. The method, then: MFI is the mean fluorescent intensity. The “Cy5-labeling ratio” as used herein means the number of Cy5-label molecules per molecule antibody.
Raji cells (ATCC-No. CCL-86) were maintained in culture in RPMI-1640 medium (PanBiotech GmbH, Cat.-No. PO4-18500) containing 10% FCS (Gibco, Cat.-No. 10500-064). […] 5*10^5 cells per sample were stained for 30 min at 4° C. Afterwards, cells were washed in culture medium. Propidium iodide (PI) staining was used to exclude dead cells.
Then the ratio of the binding capacities to CD20 on Raji cells (ATCC-No. CCL-86) is calculated according to the following formula: […]

In the case of “B-HH6-B-KV1 wt: Type II anti-CD20 antibody, humanized B-Ly1 B-HH6-B-KV1 wildtype (non-glycoengineered)”, in assay [1], the “Antitumor activity, later outcome” value was “most of Z138 tumor xenografts showed complete remission”; the “Difference in antitumor activity between wt and glycoengineered versions” value is “No significant differences”. The “Antitumor activity at time of control termination” value in assay [1] (19 days after treatment initiation) is on record as “all antibody tumors regressed”.
With “B-HH6-B-KV1: Type II anti-CD20 antibody (humanized B-Ly1 antibody) of Example 2; FIG. 2 legend calls it B-HH6-B-KV1 GE”, in assay [2], the “Ratio of the binding capacities to CD20 on Raji cells compared to rituximab” value is on record as “reduces binding capacity compared to rituximab”.
